US20230320360A1, “FORMULATIONS AND METHODS FOR REGULATING AND STIMULATING PLANT GROWTH” (priority 2020, published 2023)

System: corn fall armyworm (FAW) (Spodoptera frugiperda)
Assay: Field trials, insecticide plus ortho silicic acid against corn fall armyworm
Format: in vivo
Parameters: concentration or dose not given beside the values

Compound: Orthosilicic acid [OSA]
- Percent Control (%) (A01 = 1 day after first spray): 32.4%
- Percent Control (%) (B07 = 7 days after 2nd spray): 58.6%
- Percent Control (%) (B10, after 2nd application): 60.6%
- Percent Control (%) (B21, after 2nd application): 59%

Compound: O=C(NC(=O)c1c(F)cccc1F)Nc1ccc(OC(F)(F)C(F)OC(F)(F)F)c(Cl)c1 (stereo not drawn) [Novaluron]
- Percent Control (%) (A01 = 1 day after first spray): 60.5%
- Percent Control (%) (B07 = 7 days after 2nd spray): 88.8%
- Percent Control (%) (B10, after 2nd application): 88.9%
- Percent Control (%) (B21, after 2nd application): 84.7%

Compound: CNC(=O)c1cc(Cl)cc(C)c1NC(=O)c1cc(Br)nn1-c1ncccc1Cl [CTPR, Chlorantraniliprole]
- Percent Control (%) (A01 = 1 day after first spray): 67.6%
- Percent Control (%) (B07 = 7 days after 2nd spray): 86.8%
- Percent Control (%) (B10, after 2nd application): 88.9%
- Percent Control (%) (B21, after 2nd application): 87%
